From patent US20240383875A1, “Benzimidazole Pyridine Derivatives” (Hoffmann-La Roche Inc., priority 2022, published 2024)

Assays:
Format in all cases: biochemical
SIK1 = SIK1 (Homo sapiens, UniProt P57059); experiment: Enzymatic activity assay SIK1, RapidFire mass spectrometry (phosphorylation of CHK-peptide); conditions: RapidFire MS, inhibition of SIK1; read-out: SIK1 RF IC50
Method in brief: (§1)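 Human SIK1/2/3, 5/0.5/1.5 nM; 12.5 mM HEPES pH 7.0, 10 mM Mg acetate, 0.005% BSA. 30 min cpd pre-inc, + CHK-peptide (10 μM soln) + ATP (100 μM soln), 45 min RT. Formic acid stop; RF-MS phospho ratio; IC50.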

SIK2 = SIK2 (Homo sapiens, UniProt Q9H0K1); experiment: Enzymatic activity assay SIK2, RapidFire mass spectrometry (phosphorylation of CHK-peptide); conditions: RapidFire MS, inhibition of SIK2; read-out: SIK2 RF IC50
Method in brief: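 Read-out is the summed phospho-species fraction of CHK-peptide by RapidFire mass spectrometry, normalized between DMSO and 1 μM YKL-05-099. The reaction used 0.5 nM SIK2, 100 μM ATP and 10 μM peptide solutions in HEPES pH 7.0/10 mM magnesium acetate for 45 min at ambient temperature.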

SIK3 = SIK3 (Homo sapiens, UniProt Q9Y2K2); experiment: Enzymatic activity assay SIK3, RapidFire mass spectrometry (phosphorylation of CHK-peptide); conditions: RapidFire MS, inhibition of SIK3; read-out: SIK3 RF IC50
Method in brief: as §1

Sequence of SIK1 (P57059 whole entry): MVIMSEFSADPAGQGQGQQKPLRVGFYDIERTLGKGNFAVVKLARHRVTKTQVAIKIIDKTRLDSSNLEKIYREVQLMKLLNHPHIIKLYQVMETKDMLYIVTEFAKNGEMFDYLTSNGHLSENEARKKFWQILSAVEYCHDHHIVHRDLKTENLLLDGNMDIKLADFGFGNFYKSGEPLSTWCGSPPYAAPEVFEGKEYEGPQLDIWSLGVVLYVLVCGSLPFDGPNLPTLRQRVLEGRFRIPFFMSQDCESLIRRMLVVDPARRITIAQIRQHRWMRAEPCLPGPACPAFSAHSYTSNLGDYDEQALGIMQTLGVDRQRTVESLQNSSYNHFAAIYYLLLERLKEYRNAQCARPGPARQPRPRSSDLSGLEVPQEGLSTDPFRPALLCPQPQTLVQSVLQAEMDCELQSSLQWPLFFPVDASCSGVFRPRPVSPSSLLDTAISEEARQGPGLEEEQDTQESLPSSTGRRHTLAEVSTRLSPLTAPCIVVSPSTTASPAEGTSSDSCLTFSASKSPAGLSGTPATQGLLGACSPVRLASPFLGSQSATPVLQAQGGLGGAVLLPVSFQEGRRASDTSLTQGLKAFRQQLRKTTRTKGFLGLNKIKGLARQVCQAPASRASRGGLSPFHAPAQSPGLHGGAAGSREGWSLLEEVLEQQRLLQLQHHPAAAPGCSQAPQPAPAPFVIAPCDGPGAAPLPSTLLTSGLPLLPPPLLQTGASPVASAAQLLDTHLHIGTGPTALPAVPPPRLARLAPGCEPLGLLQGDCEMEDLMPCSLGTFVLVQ
Sequence of SIK3 (Q9Y2K2 whole entry): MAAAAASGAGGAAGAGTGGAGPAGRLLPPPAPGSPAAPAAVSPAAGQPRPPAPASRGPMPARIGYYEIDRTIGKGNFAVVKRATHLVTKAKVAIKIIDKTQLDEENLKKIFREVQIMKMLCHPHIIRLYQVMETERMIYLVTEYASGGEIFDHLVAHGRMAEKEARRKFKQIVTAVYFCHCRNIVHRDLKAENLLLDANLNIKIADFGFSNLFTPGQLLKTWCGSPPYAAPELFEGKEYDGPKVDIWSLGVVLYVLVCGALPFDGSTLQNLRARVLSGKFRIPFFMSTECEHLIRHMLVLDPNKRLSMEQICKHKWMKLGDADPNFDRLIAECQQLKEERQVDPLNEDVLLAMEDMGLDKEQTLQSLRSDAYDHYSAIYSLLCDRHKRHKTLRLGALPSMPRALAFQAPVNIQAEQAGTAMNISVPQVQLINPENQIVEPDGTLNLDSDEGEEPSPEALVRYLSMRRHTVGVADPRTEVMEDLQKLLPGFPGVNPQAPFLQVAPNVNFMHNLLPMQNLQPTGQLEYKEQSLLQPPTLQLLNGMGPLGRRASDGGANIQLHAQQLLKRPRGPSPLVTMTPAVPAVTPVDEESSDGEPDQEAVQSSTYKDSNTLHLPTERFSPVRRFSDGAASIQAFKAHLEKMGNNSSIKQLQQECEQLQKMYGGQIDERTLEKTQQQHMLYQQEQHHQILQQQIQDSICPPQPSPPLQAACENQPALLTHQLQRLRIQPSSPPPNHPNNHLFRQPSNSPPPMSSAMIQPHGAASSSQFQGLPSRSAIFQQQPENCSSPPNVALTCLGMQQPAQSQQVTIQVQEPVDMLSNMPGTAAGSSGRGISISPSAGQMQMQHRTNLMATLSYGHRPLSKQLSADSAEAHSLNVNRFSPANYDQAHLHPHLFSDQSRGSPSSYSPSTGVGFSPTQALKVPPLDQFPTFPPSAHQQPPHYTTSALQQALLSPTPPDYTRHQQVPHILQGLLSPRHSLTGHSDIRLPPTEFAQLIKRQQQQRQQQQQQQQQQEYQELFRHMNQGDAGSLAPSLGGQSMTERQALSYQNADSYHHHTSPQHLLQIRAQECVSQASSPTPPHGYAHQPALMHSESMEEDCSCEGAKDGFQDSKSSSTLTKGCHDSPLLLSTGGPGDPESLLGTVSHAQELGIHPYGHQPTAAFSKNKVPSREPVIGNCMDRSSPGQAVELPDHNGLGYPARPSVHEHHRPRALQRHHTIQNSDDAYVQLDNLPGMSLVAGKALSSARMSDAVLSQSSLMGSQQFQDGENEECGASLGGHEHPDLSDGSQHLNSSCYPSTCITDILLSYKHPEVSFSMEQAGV
Sequence of SIK2 (Q9H0K1 whole entry): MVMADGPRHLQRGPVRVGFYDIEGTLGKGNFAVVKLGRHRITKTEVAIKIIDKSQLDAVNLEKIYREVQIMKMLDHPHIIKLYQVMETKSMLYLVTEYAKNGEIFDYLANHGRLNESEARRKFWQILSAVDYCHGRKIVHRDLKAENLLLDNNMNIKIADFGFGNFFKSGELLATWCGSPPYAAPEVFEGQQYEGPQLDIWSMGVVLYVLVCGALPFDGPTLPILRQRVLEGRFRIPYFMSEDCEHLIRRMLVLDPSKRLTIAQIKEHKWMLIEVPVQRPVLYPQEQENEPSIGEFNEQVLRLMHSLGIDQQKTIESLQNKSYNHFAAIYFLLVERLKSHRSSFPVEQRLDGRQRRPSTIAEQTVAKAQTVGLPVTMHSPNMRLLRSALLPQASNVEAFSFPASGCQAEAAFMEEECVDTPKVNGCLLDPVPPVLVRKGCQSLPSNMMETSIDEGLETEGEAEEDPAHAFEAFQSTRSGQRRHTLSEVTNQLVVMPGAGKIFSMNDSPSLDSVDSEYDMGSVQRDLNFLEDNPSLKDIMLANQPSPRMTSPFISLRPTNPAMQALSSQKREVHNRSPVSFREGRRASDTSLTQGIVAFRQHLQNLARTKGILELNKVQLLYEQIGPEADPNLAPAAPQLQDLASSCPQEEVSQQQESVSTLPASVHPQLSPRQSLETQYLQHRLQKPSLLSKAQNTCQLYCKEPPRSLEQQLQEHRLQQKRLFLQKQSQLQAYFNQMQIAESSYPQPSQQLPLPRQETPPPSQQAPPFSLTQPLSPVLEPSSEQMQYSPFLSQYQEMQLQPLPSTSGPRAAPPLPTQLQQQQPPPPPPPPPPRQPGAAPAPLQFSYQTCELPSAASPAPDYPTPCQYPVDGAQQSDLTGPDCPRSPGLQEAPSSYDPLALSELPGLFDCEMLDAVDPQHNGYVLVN

| SMILES | IC50 (SIK1) [nM] | IC50 (SIK2) [nM] | IC50 (SIK3) [nM] |
| --- | --- | --- | --- |
| Cc1ccc(Nc2ccc3c(c2)ncn3-c2ccc(C(C)O)c(-n3nc(C(F)F)cc3C(F)F)n2)nn1 (stereo not drawn) [Example 248, 1-[2-[3,5-Bis(difluoromethyl)pyrazol-1-yl]-6-[5-[(6-methylpyridazin-3-yl)amino]benzimidazol-1-yl]-3-pyridyl]ethanol] | 242 | 1.8 | 0.7 |
| Cc1cc(C#N)nn1-c1nc(-n2cnc3cc(CN4CCCC4=O)ccc32)ccc1C(C)O (stereo not drawn) [Example 213, 1-[3-(1-Hydroxyethyl)-6-[5-[(2-oxopyrrolidin-1-yl)methyl]benzimidazol-1-yl]-2-pyridyl]-5-methyl-pyrazole-3-carbonitrile] | 7580 | 1520 | 174 |
| Cc1ccc(Nc2cc3ncn(-c4ccc(C(C)O)c(-n5nc(C#N)cc5C)n4)c3cc2OC(F)F)nn1 (stereo not drawn) [Example 388, 1-[6-[6-(difluoromethoxy)-5-[(6-methylpyridazin-3-yl)amino]benzimidazol-1-yl]-3-(1-hydroxyethyl)-2-pyridyl]-5-methyl-pyrazole-3-carbonitrile] | 11 | 0.4 | 0.7 |
| COc1ccc(Nc2ccc3c(c2)ncn3-c2ccc(C(C)O)c(-n3nc(C#N)cc3C)n2)nn1 (stereo not drawn) [Example 88, 1-[3-(1-Hydroxyethyl)-6-[5-[(6-methoxypyridazin-3-yl)amino]benzimidazol-1-yl]-2-pyridyl]-5-methyl-pyrazole-3-carbonitrile] | 62 | 2.2 | 0.8 |
| Cc1ccc(Nc2ccc3c(c2)ncn3-c2ccc(C(C)O)c(-n3nc(C)cc3C)n2)nn1 (stereo not drawn) [Example 108, 1-[2-(3,5-Dimethylpyrazol-1-yl)-6-[5-[(6-methylpyridazin-3-yl)amino]benzimidazol-1-yl]-3-pyridyl]ethanol; formic acid] | 3820 | 42.6 | 6.4 |
| Cc1nnc(Nc2ccc3c(c2)ncn3-c2ccc(C(C)O)c(-n3nc(C#N)cc3C)n2)s1 (stereo not drawn) [Example 111, 1-[3-(1-Hydroxyethyl)-6-[5-[(5-methyl-1,3,4-thiadiazol-2-yl)amino]benzimidazol-1-yl]-2-pyridyl]-5-methyl-pyrazole-3-carbonitrile] | 11 | 1.4 | 0.8 |
| Cc1cc(C(F)F)nn1-c1nc(-n2cnc3cc(N4C[C@H]5OCCN(C)[C@H]5C4)ccc32)ccc1CO [Example 318, [6-[5-[(4aS,7aR)-4-methyl-2,3,4a,5,7,7a-hexahydropyrrolo[3,4-b][1,4]oxazin-6-yl]benzimidazol-1-yl]-2-[3-(difluoromethyl)-5-methyl-pyrazol-1-yl]-3-pyridyl]methanol] | 327 | 50.1 | 65 |
| Cc1ccc(Nc2ccc3c(c2)ncn3-c2ccc(C(C)O)c(-c3occc3C#N)n2)nn1 (stereo not drawn) [Example 226, 2-[3-(1-Hydroxyethyl)-6-[5-[(6-methylpyridazin-3-yl)amino]benzimidazol-1-yl]-2-pyridyl]furan-3-carbonitrile] | > 30000 | 62.1 | 21.7 |
| Cc1ccc(Nc2ccc3c(c2)ncn3-c2ccc(C(C)O)c(-n3nc(C#N)cc3C)n2)cn1 (stereo not drawn) [Example 81, 1-[3-(1-Hydroxyethyl)-6-[5-[(6-methyl-3-pyridyl)amino]benzimidazol-1-yl]-2-pyridyl]-5-methyl-pyrazole-3-carbonitrile] | 9 | 2.3 | 0.8 |
| Cc1ccc(Nc2ccc3c(c2)ncn3-c2ccc(C(C)O)c(-n3nc(C(F)F)cc3C#N)n2)nn1 (stereo not drawn) [Example 303, 5-(difluoromethyl)-2-[3-(1-hydroxyethyl)-6-[5-[(6-methylpyridazin-3-yl)amino]benzimidazol-1-yl]-2-pyridyl]pyrazole-3-carbonitrile] | 30 | 0.4 | 0.4 |
| Cc1ccc(Nc2ccc3ncn(-c4ccc([C@@H](C)O)c(-n5nc(C#N)cc5C)n4)c3c2)nn1 [Example 247, 1-[3-[(1R)-1-hydroxyethyl]-6-[6-[(6-methylpyridazin-3-yl)amino]benzimidazol-1-yl]-2-pyridyl]-5-methyl-pyrazole-3-carbonitrile] | 1440 | 174 | 46.1 |
| Cc1ccc(Nc2ccc3c(c2)ncn3-c2ccc(C(C)O)c(N3CCC4(C3)CC4(F)F)n2)nn1 (stereo not drawn) [Example 299, 1-[2-(2,2-difluoro-5-azaspiro[2.4]heptan-5-yl)-6-[5-[(6-methylpyridazin-3-yl)amino]benzimidazol-1-yl]-3-pyridyl]ethanol] | 273 | 2.4 | 0.7 |

Continued, values first:

| IC50 (SIK1) [nM] | IC50 (SIK2) [nM] | IC50 (SIK3) [nM] | SMILES |
| --- | --- | --- | --- |
| 111 | 62.1 | 321 | Cc1cc(C#N)nn1-c1nc(-n2cnc3cc(CN4CCCS4(=O)=O)ccc32)ccc1C(C)O (stereo not drawn) [Example 201, 1-[6-[5-[(1,1-Dioxo-1,2-thiazolidin-2-yl)methyl]benzimidazol-1-yl]-3-(1-hydroxyethyl)-2-pyridyl]-5-methyl-pyrazole-3-carbonitrile] |
| 1170 | 25.3 | 4.6 | Cc1ccc(Nc2ccc3c(c2)ncn3-c2ccc(C(C)O)c(N3CC(C#N)C4(CCC4)C3)n2)nn1 (stereo not drawn) [Example 359, 6-[3-(1-hydroxyethyl)-6-[5-[(6-methylpyridazin-3-yl)amino]benzimidazol-1-yl]-2-pyridyl]-6-azaspiro[3.4]octane-8-carbonitrile] |
| 27 | 3.7 | 2.6 | Cc1cc(C#N)nn1-c1nc(-n2cnc3cc(Nc4ccc(OC5COC5)nn4)ccc32)ccc1C(C)O (stereo not drawn) [Example 207, 1-[3-(1-Hydroxyethyl)-6-[5-[[6-(oxetan-3-yloxy)pyridazin-3-yl]amino]benzimidazol-1-yl]-2-pyridyl]-5-methyl-pyrazole-3-carbonitrile] |
| 1340 | 783 | 236 | Cc1ccc(Nc2ccc3c(c2)ncn3-c2ccc(C(C)O)c(N3CC[C@@H](C#N)C3)n2)nn1 (stereo partly drawn) [Example 105, (3R)-1-[3-(1-Hydroxyethyl)-6-[5-[(6-methylpyridazin-3-yl)amino]benzimidazol-1-yl]-2-pyridyl]pyrrolidine-3-carbonitrile] |
| 2530 | 48.5 | 7.1 | Cc1ccc(Nc2ccc3c(c2)ncn3-c2ccc(C(C)O)c(N3CCOC(C(F)F)C3)n2)nn1 (stereo not drawn) [Example 323, 1-[2-[2-(difluoromethyl)morpholin-4-yl]-6-[5-[(6-methylpyridazin-3-yl)amino]benzimidazol-1-yl]-3-pyridyl]ethanol] |
| 5 | 22 | 63 | Cc1cc(C#N)nn1-c1nc(-n2cnc3ccc(N4CC[C@H]5CNC(=O)[C@H]54)cc32)ccc1C(C)O (stereo partly drawn) [Example 343, 1-[6-[6-[(3aS,6aS)-6-oxo-2,3,3a,4,5,6a-hexahydropyrrolo[2,3-c]pyrrol-1-yl]benzimidazol-1-yl]-3-(1-hydroxyethyl)-2-pyridyl]-5-methyl-pyrazole-3-carbonitrile] |
| 63 | 0.3 | 0.4 | Cc1ccc(Nc2ccc3c(c2)ncn3-c2ccc([C@@H](C)O)c(-c3cn(CC(F)(F)F)nc3C)n2)nn1 [Example 251, (1R)-1-[6-[5-[(6-Methylpyridazin-3-yl)amino]benzimidazol-1-yl]-2-[3-methyl-1-(2,2,2-trifluoroethyl)pyrazol-4-yl]-3-pyridyl]ethanol] |
| 2620 | 2090 | 1850 | Cc1ccc(Nc2ccc3ncn(-c4ccc(C(C)O)c(N(C)CC5(C#N)CC5)n4)c3c2)nn1 (stereo not drawn) [Example 172, 1-[[[3-(1-hydroxyethyl)-6-[6-[(6-methylpyridazin-3-yl)amino]benzimidazol-1-yl]-2-pyridyl]-methyl-amino]methyl]cyclopropanecarbonitrile] |
| 1530 | 22 | 4.8 | Cc1ccc(Nc2ccc3c(c2)ncn3-c2ccc(C(C)O)c(-n3ncc(C#N)n3)n2)nn1 (stereo not drawn) [Example 256, 2-[3-(1-Hydroxyethyl)-6-[5-[(6-methylpyridazin-3-yl)amino]benzimidazol-1-yl]-2-pyridyl]triazole-4-carbonitrile] |
| 5 | 1 | 2.1 | Cc1cc(C#N)nn1-c1nc(-n2cnc3cc(Nc4cnn(C5CNC5)c4)ccc32)ccc1C(C)O (stereo not drawn) [Example 72, 1-[6-[5-[[1-(Azetidin-3-yl)pyrazol-4-yl]amino]benzimidazol-1-yl]-3-(1-hydroxyethyl)-2-pyridyl]-5-methyl-pyrazole-3-carbonitrile] |
| 133 | 58.2 | 23.3 | Cc1cc(C#N)nn1-c1nc(-n2cnc3cc(-c4ccc5c(n4)C(=O)N(C)C5)ccc32)ccc1C(C)O (stereo not drawn) [Example 366, 1-[3-(1-hydroxyethyl)-6-[5-(6-methyl-7-oxo-5H-pyrrolo[3,4-b]pyridin-2-yl)benzimidazol-1-yl]-2-pyridyl]-5-methyl-pyrazole-3-carbonitrile] |
| 158 | 58.4 | 259 | COc1cc2ncn(-c3ccc([C@@H](C)O)c(-c4cccc(C#N)c4)n3)c2cc1OC [Example 38, (R)-3-(6-(5,6-Dimethoxy-1H-benzo[d]imidazol-1-yl)-3-(l-hydroxyethyl)pyridin-2-yl)benzonitrile] |
| 70 | 52.4 | 65.1 | Cc1ccc(Nc2cc3c(cc2F)ncn3-c2ccc(CO)c(-n3nc(C#N)cc3C)n2)nn1 [Example 314, 1-[6-[5-fluoro-6-[(6-methylpyridazin-3-yl)amino]benzimidazol-1-yl]-3-(hydroxymethyl)-2-pyridyl]-5-methyl-pyrazole-3-carbonitrile] |
